± gives the expanded uncertainty stated by the source.
Assay: mn = molality of the nth substance listed, in mol/kg
Details: 298.15 K, 101 kPa, Liquid, Vibrating tube method

SMILES | mass density (m1 = 0.02) [kg/m3] | mass density (m1 = 0.1001) [kg/m3] | mass density (m1 = 0.4001) [kg/m3] | mass density (m1 = 0.8) [kg/m3] | mass density (m1 = 1.201) [kg/m3] | mass density (m1 = 1.602) [kg/m3] | mass density (m1 = 0.0201) [kg/m3] | mass density (m1 = 0.1) [kg/m3] | mass density (m1 = 0.8002) [kg/m3] | mass density (m1 = 1.2) [kg/m3] | mass density (m1 = 1.6) [kg/m3] | mass density (m1 = 0.4002) [kg/m3] | mass density (m1 = 0.8001) [kg/m3] | mass density (m1 = 1) [kg/m3]
O=[N+]([O-])[O-].[Na+] [sodium nitrate] + O | 998.191 ± 0.075 | 1002.65 ± 0.075 | 1019.02 ± 0.082 | 1040.02 ± 0.09 | 1060.25 ± 0.098 | 1079.67 ± 0.11 | – | – | – | – | – | – | – | –
[Na+].[O-][Cl+3]([O-])([O-])[O-] [sodium perchlorate] + O | – | – | 1027.27 ± 0.087 | – | – | – | 998.644 ± 0.078 | 1004.82 ± 0.079 | 1055.68 ± 0.098 | 1083.49 ± 0.11 | 1111.93 ± 0.12 | – | – | –
O=S(=O)([O-])[O-].[Na+].[Na+] [sodium sulfate] + O | – | 1009.69 ± 0.089 | – | – | – | – | 999.638 ± 0.087 | – | – | 1133.41 ± 0.14 | – | 1045.75 ± 0.1 | 1090.93 ± 0.12 | 1112.49 ± 0.13
